Experimental data: US6548531B2, “Method for cancer therapy” (priority 2001, dated 2003)

Tests used:
[1] = tested on: MDA-MB-435 breast adenocarcinoma xenograft; assay: In vivo antitumor activity, established mammary fat pad xenograft; settings: low doses as single agents, 3 weeks i.p.
[2] = Toxicity (body weight, deaths) in tumor-bearing mice; settings: 3 weeks
Method: Drug Preparation and Treatment: Suspensions of Compound II were prepared by combining the drug and Pluronic F68 block copolymer at 1:9 or 1:18 ratios of drug to polymer, to prepare suspensions in the concentration range 0-10 mg/ml and 20 mg/ml respectively. […] The final ratio of liquid components (EtOH, Cremophor, and saline) were 5:5:90, respectively. The experiment consisted of 16 groups which contained a vehicle group, 3 groups given Paclitaxel at 7.5, 15 and 30 mg/kg as a single agent, 3 groups given Compound II at 12.5, 25 and 50 mg/kg as a single agent and […] combination groups of all doses of Paclitaxel and Compound II.
All mice were observed and weighed as groups, 7 times per week for three weeks. The average weight of individual mice was calculated by dividing the group weight by the number of animals per group. Percent body weight change was calculated using the formula:
(Current Average Weight−Initial Average Weight/Initial Average Weight) ×100.

SMILES	antitumor efficacy [1]	Deaths/Total ([2]; Paclitaxel 7.5 mg/kg i.p. q.d. 5x/week)	Deaths/Total ([2]; Paclitaxel 15 mg/kg i.p. q.d. 5x/week)	Deaths/Total ([2]; Paclitaxel 30 mg/kg i.p. q.d. 3x/week)
Cn1cc(C2=C(c3cn(C)c4cc([N+](=O)[O-])ccc34)C(=O)NC2=O)c2ccccc21 [Compound II]	only minimally effective	–	–	–
CC(=O)O[C@H]1C(=O)[C@@]2(C)[C@H]([C@H](OC(=O)c3ccccc3)[C@]3(O)C[C@H](OC(=O)[C@H](O)[C@@H](NC(=O)c4ccccc4)c4ccccc4)C(C)=C1C3(C)C)[C@]1(OC(C)=O)CO[C@@H]1C[C@@H]2O [Paclitaxel, paclitaxel]	only minimally effective	2/10	0/10	0/10
